Literature values as cited in patent publication US20020192671A1, “Method and system for predicting the biological activity, including toxicology and toxicity, of substances” (priority 2001, published 2002).

Experiments:
[1] = test system: cytochrome P450 4A
[2] = test system: P450 4F
[3] = test system: rodents

| effect on cytochrome P450 4A levels [1] | effect on P450 4F levels [2] | Compound | toxic effect at high non-therapeutic doses | effect of chronic treatment in rodents [3] |
| --- | --- | --- | --- | --- |
|  |  | CC(=O)Nc1ccc(O)cc1 [APAP, acetaminophen] | hepatic and renal failure |  |
| increase levels of cytochrome P450 4A | reduce the levels of P450 4F | CCOC(=O)C(C)(C)Oc1ccc(Cl)cc1 [Clofibrate] |  | hepatomegaly, an increase in hepatic peroxisomes |
